Laboratory results reported in patent US20060173041A1, “Sulphonylpiperidine derivatives containing an aryl or heteroaryl group for use as matrix metalloproteinase inhibitors” (priority 2002, published 2006).

Target: T1, proTNFα convertase enzyme (TACE) (Homo sapiens, UniProt P78536)
T1 construct: partially purified, isolated enzyme assay, the enzyme being obtained from the membranes of THP-1; endogenous in cells; host or cells: THP-1 cell membranes, partially purified as in Mohler et al. (1994) Nature 370:218-220
T1 sequence (P78536 215-824): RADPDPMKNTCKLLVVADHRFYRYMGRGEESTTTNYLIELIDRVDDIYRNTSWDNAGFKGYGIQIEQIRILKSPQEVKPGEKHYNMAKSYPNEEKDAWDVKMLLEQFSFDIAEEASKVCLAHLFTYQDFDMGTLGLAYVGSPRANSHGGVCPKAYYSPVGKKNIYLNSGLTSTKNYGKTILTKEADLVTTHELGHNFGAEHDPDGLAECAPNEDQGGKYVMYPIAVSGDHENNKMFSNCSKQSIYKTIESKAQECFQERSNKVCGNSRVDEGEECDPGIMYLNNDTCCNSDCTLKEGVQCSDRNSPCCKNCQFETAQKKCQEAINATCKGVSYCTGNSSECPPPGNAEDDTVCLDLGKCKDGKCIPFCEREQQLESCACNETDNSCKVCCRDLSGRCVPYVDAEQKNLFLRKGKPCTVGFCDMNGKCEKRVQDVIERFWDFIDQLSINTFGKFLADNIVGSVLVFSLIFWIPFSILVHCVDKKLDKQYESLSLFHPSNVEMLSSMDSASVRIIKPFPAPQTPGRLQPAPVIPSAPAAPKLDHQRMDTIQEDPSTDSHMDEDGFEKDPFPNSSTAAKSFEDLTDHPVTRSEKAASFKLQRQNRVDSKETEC
Test: partially purified isolated enzyme assay for proTNFα convertase (TACE)
Format: biochemical
Details: 10 μM of compound; enzyme from membranes of THP-1; 26° C. for 4 hours
Protocol: Recombinant human proMMP13 may be expressed and purified as described by Knauper et al. [V. Knauper et al., (1996) The Biochemical Journal 271:1544-1550 (1996)]. […] Activity is determined by measuring the fluorescence at λex 328 nm and λem 393 nm. Percent inhibition may be calculated as follows: % Inhibition is equal to the [Fluorescenceplus inhibitor−Fluorescencebackground] divided by the [Fluorescenceminus inhibitor−Fluorescencebackground].
The ability of the compounds to inhibit proTNFα convertase enzyme (TACE) has been assessed using a partially purified, isolated enzyme assay, the enzyme being obtained from the membranes of THP-1 as described by K. M. Mohler et al., (1994) Nature 370:218-220. The purified enzyme activity and inhibition thereof was determined by incubating the partially purified enzyme in the presence or absence of test compounds using the substrate 4′,5′-Dimethoxy-fluoresceinyl Ser.Pro.Leu.Ala.Gln.Ala.Val.Arg.Ser.Ser.Ser.Arg.Cys(4-(3-succinimid-1-yl)fluorescein)-NH2 in assay buffer (50 mM Tris HCl, pH 7.4 containing 0.1% (w/v) Triton X-100 and 2 mM CaCl2), at 26° C. for 4 hours. The amount of inhibition was determined as for MMP13 except λex 485 nm and λem 538 nm were used. […]

| inhibition at 10 µM [%] | Structure (SMILES) |
| --- | --- |
| 81 | CC(C)Oc1ccccc1OC1CCN(S(=O)(=O)CC(c2ccccc2)N(O)C=O)CC1 (racemic) [Example 8, (R/S)-hydroxy(2-{[4-(2-isopropoxyphenoxy)piperidin-1-yl]sulphonyl}-1-phenylethyl)formamide] |
| 76 | CC(C)NC(=O)c1ccccc1OC1CCN(S(=O)(=O)CC(c2ccccc2)N(O)C=O)CC1 (racemic) [Example 14] |
